Data: US20080114031A1, “MONOSACCHARIDE DERIVATIVES” (priority 2006, published 2008)

Experiments:
[1] = target: T1, recombinant 5-Lox (Homo sapiens, UniProt P09917); experiment: Assay for 5-Lipoxygenase Activity; type: biochemical; conditions: arachidonic acid, absorbance at 236 nm (AUC), range stated for the group of compounds tested, read-out: 5-1, poxygenase inhibition IC50
T1 sequence (P09917 1-674): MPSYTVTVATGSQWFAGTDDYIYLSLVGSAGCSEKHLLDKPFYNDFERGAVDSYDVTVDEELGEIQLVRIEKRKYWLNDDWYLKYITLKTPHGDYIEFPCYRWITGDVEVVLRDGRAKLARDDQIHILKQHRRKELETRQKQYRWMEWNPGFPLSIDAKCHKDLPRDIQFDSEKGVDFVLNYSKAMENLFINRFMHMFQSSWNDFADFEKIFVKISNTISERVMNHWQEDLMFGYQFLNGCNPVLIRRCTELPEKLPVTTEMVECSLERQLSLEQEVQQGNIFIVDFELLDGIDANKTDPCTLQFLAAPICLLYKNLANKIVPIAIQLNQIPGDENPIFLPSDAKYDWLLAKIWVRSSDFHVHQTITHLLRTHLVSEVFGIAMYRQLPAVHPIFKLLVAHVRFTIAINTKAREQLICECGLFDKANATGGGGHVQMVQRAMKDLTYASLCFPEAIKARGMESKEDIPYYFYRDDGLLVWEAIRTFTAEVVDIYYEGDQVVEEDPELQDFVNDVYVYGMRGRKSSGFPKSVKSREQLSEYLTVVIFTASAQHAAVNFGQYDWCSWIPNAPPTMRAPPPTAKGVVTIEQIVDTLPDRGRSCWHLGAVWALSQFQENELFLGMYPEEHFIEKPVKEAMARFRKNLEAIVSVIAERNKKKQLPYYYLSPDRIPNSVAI
Procedure: Assay for 5-Lipoxygenase Activity
In a 96 well UV-plate, 100 μl of phosphate buffer saline (PBS) containing DTT (200 μM), ATP (100 μM) and calcium chloride (100 μM) was added. To each well 0.5 μl of test drug (200 times concentrated) or vehicle was added, followed by 4 μl of recombinant 5-Lox (3 units/μl) and was incubated at 37° C. for 5 min. The reaction was initiated by adding 1 μl of 1 mM freshly prepared arachidonic acid and increase in absorbance was monitored at 236 nm for 10 min. (J Biol. Chem. 261:11512, 1986) A plot of absorbance verses time curve was prepared and area under curve (AUC) was computed for each well. Percent inhibition of AUC for different treatments was calculated with respect to the difference between the Arachidonic acid stimulated and negative control values, to compute IC50 values.

[2] = system: LTB4 release; experiment: A23187 Induced LTB4 Release; type: cell-based; conditions: Neutrophil; neutrophils from healthy human donors, 1 hour with test drug, 0.3 μg/ml A23187 for 10 min, LTB4 ELISA; range stated for the group of compounds tested; read-out: A123187 induced LTB4 release IC50
Procedure: The compounds of the present invention are tested in one or both of the assays described herein. Standard assays are used to evaluate activity of compounds in present invention on inflammatory cells. Attenuation of agonist-induced release of lipid mediator of neutrophil chemotaxis, leukotriene B4 (LTB4), is used to evaluate Inhibitory effect on neutrophils.
Venous blood was collected from healthy human donors using heparin as an anti-coagulant. Neutrophils were isolated from freshly drawn blood after dextran sedimentation and ficoll separation (Eur J Biochem. 169, 175, 1987), 180 μl of the of neutrophil suspension (0.2×10^6 cells/ml) was taken and added 19 μL of Hank's Buffer salt solution along with 1 μL of the test drug (200 times concentrated) in a 24 well plate and incubated at 37° C. for 1 hour, 3 minutes before the end of test compound incubation, 0.25 mM Ca^++/Mg^++ were added. Then, 0.3 μg/ml A23187 (Sigma Chem, USA) was added and incubated for further 10 min at 37° C. The reaction was stopped by adding 80 μL of cold methanol and centrifuged to remove cell debris (J Pharmacol Exp Ther. 297:267, 2001). The samples were analysed for LTB4 release using LTB4ELISA kits (Assay Design Inc., USA). The amount of LTB4 released was quantified and percent inhibition of LTB4 release was calculated with respect to the difference between the A23187 stimulated and negative control cells, to compute IC50 values.

CC1(C)OCC(C2OC3OC(C)(C)OC3C2NC(=S)Nc2ccc(F)cc2)O1 [Compound No. 55, 1,2;5,6-Di-O-isopropylidene-3-deoxy-3-{[(4-fluorophenyl)-amino]thiocarbonyl}-amino-α-D-allofuranoside]
IC50 [1]: 0.3 to 10 µM

CC1(C)O[C@H]2O[C@H]([C@H]3COC(C)(C)O3)[C@@H](NC(=S)Nc3ccc(Cl)c(Cl)c3)[C@H]2O1 [Compound No. 60, 1,2;5,6-Di-O-isopropylidene-3-deoxy-3-{[(3,4-dichlorophenyl)-amino]thiocarbonyl}-amino-α-D-allofuranoside]
IC50 [1]: 0.3 to 10 µM

CC1(C)OCC(C2OC3OC(C)(C)OC3C2NC(=S)Nc2ccc(OCc3ccccc3)cc2)O1 [Compound No. 63, 1,2;5,6-Di-O-isopropylidene-3-deoxy-3-{[(4-benzyloxyphenyl)amino]thiocarbonyl}-amino-α-D-allofuranoside]
IC50 [1]: 0.3 to 10 µM

CC1(C)O[C@H]2O[C@H]([C@H]3COC(C)(C)O3)[C@@H](NC(=S)Nc3ccccc3[N+](=O)[O-])[C@H]2O1 [Compound No. 67, 1,2;5,6-Di-O-isopropylidene-3-deoxy-3-{[(2-nitrophenyl)-amino]thiocarbonyl}-amino-α-D-allofuranoside]
IC50 [1]: 0.3 to 10 µM

CC1(C)OCC(C2OC3OC(C)(C)OC3C2NC(=S)Nc2ccc(C#N)cc2)O1 [Compound No. 68, 1,2;5,6-Di-O-isopropylidene-3-deoxy-3-{[(4-cyanophenyl)-amino]thiocarbonyl}-amino-α-D-allofuranoside]
IC50 [1]: 0.3 to 10 µM

CC1(C)OCC(C2OC3OC(C)(C)OC3C2NC(=O)Cc2ccccc2C(F)(F)F)O1 [Compound No. 80, 1,2;5,6-Di-O-isopropylidene-3-deoxy-3-{[(2-trifluoromethylphenyl)-methyl]carbonyl}-amino-α-D-allofuranoside]
IC50 [2]: 0.13 to 30 µM | IC50 [1]: 0.3 to 10 µM

CC1(C)OCC(C2OC3OC(C)(C)OC3C2NC(=O)Cc2cccc(Cl)c2)O1 [Compound No. 84, 1,2;5,6-Di-O-isopropylidene-3-deoxy-3-{[(3-chlorophenyl)-methyl]carbonyl}-amino-α-D-allofuranoside]
IC50 [2]: 0.13 to 30 µM | IC50 [1]: 0.3 to 10 µM

CC1(C)OCC(C2OC3OC(C)(C)OC3C2NC(=O)Cc2ccc(Cl)c(Cl)c2)O1 [Compound No. 100, 1,2;5,6-Di-O-isopropylidene-3-deoxy-3-{[(3,4-dichlorophenyl)-methyl]carbonyl}-amino-α-D-allofuranoside]
IC50 [2]: 0.13 to 30 µM | IC50 [1]: 0.3 to 10 µM

CC1(C)OCC(C2OC3OC(C)(C)OC3C2NC(=S)Nc2ccc(F)cc2)O1 [Compound No. 101, 1,2;5,6-Di-O-isopropylidene-3-deoxy-3-{[(4-fluorophenyl)-amino]thiocarbonyl}-amino-α-D-glucofuranoside]
IC50 [2]: 0.13 to 30 µM

CC1(C)OCC(C2OC3OC(C)(C)OC3C2NC(=S)Nc2ccccc2F)O1 [Compound No. 103, 1,2;5,6-Di-O-isopropylidene-3-deoxy-3-{[(2-fluorophenyl)-amino]thiocarbonyl}-amino-α-D-glucofuranoside]
IC50 [2]: 0.13 to 30 µM | IC50 [1]: 0.3 to 10 µM
